This experiment concerns the target T1, HCV polymerase (NS5B570n-Con1) (Hepatitis C virus genotype 1b, UniProt Q9WMX2).
T1 construct: contains a 21 amino acid deletion at the C-terminus relative to the full-length HCV polymerase; 6-histidine (N); made in house; host or cells: E. coli strain BL21(DE) pLysS (pET17b)
Nature of the experiment: biochemical. Also noted: species or system HCV Con1 strain.

Where [1] appears, read: IC50 HCV NS5B RNA Polymerase Assay (values with asterisk), values with asterisk: cIRES RNA template, 3 nM NS5B570n-Con1.
[2] abbreviates: IC50 HCV NS5B RNA Polymerase Assay, values without asterisk, 20 nM NS5B570n-Con1 enzyme, 20 nM cIRES RNA template.

Here are results for 39 compounds from patent US8273773B2 (priority 2008, dated 2012).

SMILES strings stand for the structures. Where two headings read alike, the source gives them in different places.
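Note: recombinant His-tagged enzyme from E. coli, radiolabeled nucleotide incorporation into acid-insoluble RNA read by scintillation after filtration, no-enzyme background subtracted, activity relative to positive control.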

With `COc1c(/C=C/c2ccc(NS(=O)(=O)C(F)(F)F)cc2)cc(-c2cc(F)c[nH]c2=O)cc1C(C)(C)C` [I-154], the IC50 (in general, the concentration that gives 50% inhibition) (read-out: IC50 HCV NS5B RNA Polymerase Assay, values without asterisk, 20 nM NS5B570n-Con1 enzyme, 20 nM cIRES RNA template) turned out to be 10 nM.
Turning to `COc1c(/C=C/c2ccc(NS(C)(=O)=O)cc2)cc(-c2cc(Cl)c[nH]c2=O)cc1C1CC1` [I-292, N-(4-{(E)-2-[5-(5-Chloro-2-oxo-1,2-dihydro-pyridin-3-yl)-3-cyclopropyl-2-methoxy-phenyl]-vinyl}-phenyl)-methanesulfonamide], under setting [1], the IC50 came to 29 nM.
Consider `COc1c(/C=C/c2ccc(NS(C)(=O)=O)cc2C(=O)N(C)CCN(C)C)cc(-c2cc(F)c[nH]c2=O)cc1C(C)(C)C` [I-207], for which, under setting [1], half-maximal inhibition (IC50) required 4 nM.
The compound `COc1c(NC(=O)c2ccc(NS(C)(=O)=O)cc2F)cc(-c2ccc[nH]c2=O)cc1C(C)(C)C` [I-281] returned an IC50 under setting [2] of 7 nM.
As for `COc1c(/C=C/c2ccc(NS(C)(=O)=O)cc2)cc(-c2ccc(COCCO)[nH]c2=O)cc1C(C)(C)C` [I-225, N-[4-((E)-2-{3-tert-Butyl-5-[6-(2-hydroxy-ethoxymethyl)-2-oxo-1,2-dihydro-pyridin-3-yl]-2-methoxy-phenyl}-vinyl)-phenyl]-methanesulfonamide], the IC50 under setting [1] worked out at 6 nM.
Still for that read-out and setting: the figure for `COc1c(/C=C/c2ccc(NS(C)(=O)=O)cc2)cc(-c2cc(Cl)c[nH]c2=O)cc1C1(Cl)CC1` [I-264] is 5 nM; for `COc1c(/C=C/c2ccccc2S(C)(=O)=O)cc(-c2ccc[nH]c2=O)cc1C(C)(C)C` [I-244, 3-{3-tert-Butyl-5-[(E)-2-(2-methanesulfonyl-phenyl)-vinyl]-4-methoxy-phenyl}-1H-pyridin-2-one] it is 1 nM.
Turning to `COc1c(C(=O)NC2CCC(N(C)C)CC2)cc(-c2ccc[nH]c2=O)cc1C(C)(C)C` (stereo not drawn) [I-92], under setting [2], the midpoint of inhibition, the IC50, lay at 1690 nM.
On the same count and under the same terms, the figure for `COc1c(NC(=O)c2ccc(O)cc2F)cc(-c2ccc[nH]c2=O)cc1C(C)(C)C` [I-252, N-[3-tert-Butyl-2-methoxy-5-(2-oxo-1,2-dihydro-pyridin-3-yl)-phenyl]-2-fluoro-4-hydroxy-benzamide] is 38 nM.
Under setting [2], `COc1c(C(=O)NCc2cncn2C)cc(-c2ccc[nH]c2=O)cc1C(C)(C)C` [I-39] displayed an IC50 of 1340 nM.
As to `COc1c(/C=C/c2ccc(NS(=O)(=O)CCCN3CCCC3)cc2)cc(-c2ccc[nH]c2=O)cc1C(C)(C)C` [I-234, 3-Pyrrolidin-1-yl-propane-1-sulfonic acid (4-{(E)-2-[3-tert-butyl-2-methoxy-5-(2-oxo-1,2-dihydro-pyridin-3-yl)-phenyl]-vinyl}-phenyl)-amide], under setting [1], the IC50 turned out to be 4 nM.
Turning to `COc1c(CC(C(N)=O)c2ccc(NS(C)(=O)=O)cc2)cc(-c2ccc[nH]c2=O)cc1C(C)(C)C` (stereo not drawn) [I-178], under setting [2], it took 15 nM to reach half-maximal inhibition (IC50).
`COc1c(/C=C/c2ccc(NS(=O)(=O)CCCN3CCCC3)cc2)cc(-c2cc(F)c[nH]c2=O)cc1C(C)(C)C` [I-230, 3-Pyrrolidin-1-yl-propane-1-sulfonic acid (4-{(E)-2-[3-tert-butyl-5-(5-fluoro-2-oxo-1,2-dihydro-pyridin-3-yl)-2-methoxy-phenyl]-vinyl}-phenyl)-amide] came in with an IC50 under setting [1] of 6 nM.
As to `COc1c(C(=O)Nc2cccc(O)c2C)cc(-c2ccc[nH]c2=O)cc1C(C)(C)C` [I-185], the IC50 under setting [2] worked out at 854 nM.
Compound `COc1ccc(-c2cc(/C=C/c3ccc(NS(C)(=O)=O)cc3CO)c(OC)c(C(C)(C)C)c2)c(=O)[nH]1` [I-210, N-(4-{(E)-2-[3-tert-Butyl-2-methoxy-5-(6-methoxy-2-oxo-1,2-dihydro-pyridin-3-yl)-phenyl]-vinyl}-3-hydroxymethyl-phenyl)-methanesulfonamide] displayed an IC50 under setting [1] of 1 nM.
Under setting [1], `CS(=O)(=O)Nc1ccc(/C=C/c2cc(-c3ccc[nH]c3=O)cc(C3(C(F)F)CC3)c2)cc1` [I-275, N-(4-{(E)-2-[3-(1-Difluoromethyl-cyclopropyl)-5-(2-oxo-1,2-dihydro-pyridin-3-yl)-phenyl]-vinyl}-phenyl)-methanesulfonamide] had an IC50 of 1 nM.
In turn, `COCCN(C(=O)c1cc(-c2ccc[nH]c2=O)cc(C(C)(C)C)c1OC)C1CC1` [I-31] came in with an IC50 under setting [2] of 2290 nM.
On the same count and under the same terms, the figure for `COc1c(C(=O)NCCN(C)C)cc(-c2ccc[nH]c2=O)cc1C(C)(C)C` [I-43] is 1750 nM.
Under setting [1], `COc1c(/C=C/c2ccccn2)cc(-c2ccc[nH]c2=O)cc1C(C)(C)C` [I-241, 3-[3-tert-Butyl-4-methoxy-5-((E)-2-pyridin-2-yl-vinyl)-phenyl]-1H-pyridin-2-one] showed an IC50 of 3 nM.
As to `COc1c(CC(C#N)c2ccc(NS(C)(=O)=O)cc2)cc(-c2ccc[nH]c2=O)cc1C(C)(C)C` (stereo not drawn) [I-177, N-(4-{2-[3-tert-Butyl-2-methoxy-5-(2-oxo-1,2-dihydro-pyridin-3-yl)-phenyl]-1-cyano-ethyl}-phenyl)-methanesulfonamide], the midpoint of inhibition under setting [2], the IC50, lay at 8 nM.
Same read-out and setting: the figure for `COc1c(NC(=O)c2ccc(NC3CC3)cc2)cc(-c2ccc[nH]c2=O)cc1C(C)(C)C` [I-256, N-[3-tert-Butyl-2-methoxy-5-(2-oxo-1,2-dihydro-pyridin-3-yl)-phenyl]4-cyclopropylamino-benzamide] is 19 nM; for `COc1c(NC(=O)c2ccc(NCC(F)(F)F)cc2)cc(-c2ccc[nH]c2=O)cc1C(C)(C)C` [I-253, N-[3-tert-Butyl-2-methoxy-5-(2-oxo-1,2-dihydro-pyridin-3-yl)-phenyl]-4-(2,2,2-trifluoro-ethylamino)-benzamide] it is 2 nM.
Under setting [1], `COc1c(/C=C/c2ccc(NS(C)(=O)=O)cn2)cc(-c2cc(Cl)c[nH]c2=O)cc1C(C)(C)C` [I-261] had a concentration for half-maximal inhibition (IC50) of 3 nM.
On the same count and under the same terms, the figure for `CS(=O)(=O)Nc1ccc(/C=C/c2cc(-c3ccc[nH]c3=O)cc(C3(Cl)CC3)c2)cc1` [I-274, N-(4-{(E)-2-[3-(1-Chloro-cyclopropyl)-5-(2-oxo-1,2-dihydro-pyridin-3-yl)-phenyl]-vinyl}-phenyl)-methanesulfonamide] is 2 nM.
Under setting [2], `COc1c(C(=O)NCCc2ccccc2)cc(-c2ccc[nH]c2=O)cc1C(C)(C)C` [I-34] displayed an IC50 of 1700 nM.
Under setting [2], `COc1c(NC(=O)c2ccc(NS(C)(=O)=O)cc2C)cc(-c2ccc[nH]c2=O)cc1C(C)(C)C` [I-282] displayed an IC50 of 13 nM.
On the same count and under the same terms, the figure for `COc1c(NC(=O)c2ccc(NS(C)(=O)=O)cc2)cc(-c2ccc(C)[nH]c2=O)cc1C(C)(C)C` [I-286] is 19 nM.
As for `CCS(=O)(=O)Nc1ccc(/C=C/c2cc(-c3cc(F)c[nH]c3=O)cc(C(C)(C)C)c2OC)cc1` [I-228, Ethanesulfonic acid (4-{(E)-2-[3-tert-butyl-5-(5-fluoro-2-oxo-1,2-dihydro-pyridin-3-yl)-2-methoxy-phenyl]-vinyl}-phenyl)-amide], under setting [1], the IC50 stood at 5 nM.
Take `COC(=O)c1cc(NS(C)(=O)=O)ccc1/C=C/c1cc(-c2ccc[nH]c2=O)cc(C(C)(C)C)c1` [I-158]: the IC50 under setting [2] came to 19 nM.
`COc1c(/C=C/c2ccc(NS(C)(=O)=O)cc2)cc(-c2ccc(C(C)O)[nH]c2=O)cc1C(C)(C)C` (stereo not drawn) [I-223, N-[4-((E)-2-{3-tert-Butyl-5-[6-(1-hydroxy-ethyl)-2-oxo-1,2-dihydro-pyridin-3-yl]-2-methoxy-phenyl}-vinyl)-phenyl]-methanesulfonamide] came in with an IC50 under setting [1] of 1 nM.
In the case of `COc1c(/C=C/c2ccc(NS(C)(=O)=O)cn2)cc(-c2cc(F)c[nH]c2=O)cc1C(C)(C)C` [I-170, N-(6-{(E)-2-[3-tert-Butyl-5-(5-fluoro-2-oxo-1,2-dihydro-pyridin-3-yl)-2-methoxy-phenyl]-vinyl}-pyridin-3-yl)-methanesulfonamide], half-maximal inhibition under setting [2] (IC50) was put at 6 nM.
On the same count and under the same terms, the figure for `COc1c(/C=C(\CO)c2ccc(NS(C)(=O)=O)cc2)cc(-c2ccc[nH]c2=O)cc1C(C)(C)C` [I-149, N-(4-{(Z)-2-[3-tert-Butyl-2-methoxy-5-(2-oxo-1,2-dihydro-pyridin-3-yl)-phenyl]-1-hydroxymethyl-vinyl}-phenyl)-methanesulfonamide] is 26 nM.
`CC(C)(C)c1cc(/C=C/c2ccc(NS(C)(=O)=O)c(F)c2)cc(-c2ccc[nH]c2=O)c1` [I-146, N-(4-{(E)-2-[3-tert-Butyl-5-(2-oxo-1,2-dihydro-pyridin-3-yl)-phenyl]-vinyl}-2-fluoro-phenyl)-methanesulfonamide]: the concentration for half-maximal inhibition (IC50) under setting [2] was found to be 3 nM.
`C/C(=C\c1cc(C(C)(C)C)cc(-c2ccc[nH]c2=O)c1O)c1ccc(NS(C)(=O)=O)cc1` [I-143] showed an IC50 under setting [2] of 308 nM.
Compound `COCCNc1ccc(C(=O)Nc2cc(-c3ccc[nH]c3=O)cc(C(C)(C)C)c2OC)cc1` [I-257, N-[3-tert-Butyl-2-methoxy-5-(2-oxo-1,2-dihydro-pyridin-3-yl)-phenyl]-4-(2-methoxy-ethylamino)-benzamide] showed an IC50 under setting [2] of 184 nM.
`COc1c(/C=C/c2ccc(NS(C)(=O)=O)cc2CNC(C)=O)cc(-c2ccc[nH]c2=O)cc1C(C)(C)C` [I-160, N-(2-{(E)-2-[3-tert-Butyl-2-methoxy-5-(2-oxo-1,2-dihydro-pyridin-3-yl)-phenyl]-vinyl}-5-methanesulfonylamino-benzyl)-acetamide] displayed an IC50 under setting [2] of 4 nM.
`COC(=O)c1cc(NS(C)(=O)=O)ccc1/C=C/c1cc(-c2ccc(C)[nH]c2=O)cc(C(C)(C)C)c1OC` [I-201, 2-{(E)-2-[3-tert-Butyl-2-methoxy-5-(6-methyl-2-oxo-1,2-dihydro-pyridin-3-yl)-phenyl]-vinyl}-5-methanesulfonylamino-benzoic acid methyl ester] came in with an IC50 under setting [1] of 1 nM.
`COc1c(/C=C/c2ccc(NS(C)(=O)=O)cc2CN2CCOCC2)cc(-c2cc(F)c[nH]c2=O)cc1C(C)(C)C` [I-222, N-(4-{(E)-2-[3-tert-Butyl-5-(5-fluoro-2-oxo-1,2-dihydro-pyridin-3-yl)-2-methoxy-phenyl]-vinyl}-3-morpholin-4-ylmethyl-phenyl)-methanesulfonamide] came in with an IC50 under setting [1] of 1 nM.
Under setting [2], `COc1c(C(=O)NCC(C)c2ccccc2)cc(-c2ccc[nH]c2=O)cc1C(C)(C)C` (stereo not drawn) [I-35] showed an IC50 of 1230 nM.
